In ChEMBL document CHEMBL4316651, “Halogenated Tyrosine Derivatives from the Tropical Eastern Pacific Zoantharians Antipathozoanthus hickmani and Parazoanthus darwini” (J Nat Prod, 2019) one finds Activity and IC50 data, which are given here for eight compounds.

Test [1] deals with Staphylococcus aureus. The experiment in a line: Antimicrobial activity against methicillin-sensitive Staphylococcus aureus ATCC 29213 at 128 ug/ml by CLSI protocol based method. The format is functional, organism-based.
Test [2] relates to Staphylococcus aureus. The test is described as follows: Antimicrobial activity against methicillin-resistant Staphylococcus aureus MB5393 at 128 ug/ml by CLSI protocol based method. The format is functional, organism-based.
The test system of the next test is Escherichia coli. The experiment in a line: Antimicrobial activity against Escherichia coli ATCC 25922 at 128 ug/ml by CLSI protocol based method. Format: functional, organism-based.
A further test relates to Klebsiella pneumoniae. The test is described as follows: Antimicrobial activity against Klebsiella pneumoniae ATCC 700603 at 128 ug/ml by CLSI protocol based method. The format is functional, organism-based.
Another test deals with Acinetobacter baumannii. The experiment in a line: Antimicrobial activity against Acinetobacter baumannii MB5973 at 128 ug/ml by CLSI protocol based method. Format: functional, organism-based.
The next test has as its system Pseudomonas aeruginosa. The test is described as follows: Antimicrobial activity against Pseudomonas aeruginosa PAO1 at 128 ug/ml by CLSI protocol based method. Format: functional, organism-based.
The test system of the next test is HepG2. The test is described as follows: Cytotoxicity in human HepG2 cells incubated for 24 hrs by MTT assay. The format is functional, cell-based.
A further test deals with A549. The experiment in a line: Cytotoxicity in human A549 cells incubated for 24 hrs by MTT assay. Format: functional, cell-based.
Another test relates to MIA PaCa-2. The experiment in a line: Cytotoxicity in human MIAPaCa2 cells incubated for 24 hrs by MTT assay. Format: functional, cell-based. Background: Tetrazolium dyes change colour on reduction, which living cells bring about.
The next test deals with Candida albicans. The experiment in a line: Antimicrobial activity against Candida albicans ATCC 64124 at 128 ug/ml by CLSI protocol based method. The format is functional, organism-based.

Active and inactive are the calls of the source. No cut-off for these calls is given here.

As a reminder, the IC50 is the concentration that inhibits the measured activity by half. `C[N+](C)(C)CC(=O)N[C@@H](Cc1cc(Br)c(O)c(Br)c1)C(=O)O.O=C([O-])C(F)(F)F`: the result in the test on Staphylococcus aureus [1], with Staphylococcus aureus [2], in the test with Escherichia coli, with Klebsiella pneumoniae, in the test on Acinetobacter baumannii and in the test on Pseudomonas aeruginosa was inactive. Moreover, in the test with Candida albicans, the result was inactive. Moreover, the IC50 result in the test on HepG2 (hepg2), in the test with A549 and in the test with MIA PaCa-2 was “Not Active” each time.
Regarding `C[N+](C)(C)CCc1cc(Br)c(O)c(I)c1.O=C([O-])C(F)(F)F`, the outcome with Staphylococcus aureus [1], with Staphylococcus aureus [2], in the test with Escherichia coli, in the test with Klebsiella pneumoniae, in the test on Acinetobacter baumannii and with Pseudomonas aeruginosa was inactive. In addition, the outcome with Candida albicans was inactive. Further, the IC50 entry with HepG2 (hepg2), in the test with A549 and with MIA PaCa-2 was “Not Active” throughout.
For the compound `C[N+]1(C)CCC[C@@H]1C(=O)N[C@@H](Cc1cc(Br)c(O)c(Br)c1)C(=O)O.O=C([O-])C(F)(F)F`, the result with Staphylococcus aureus [1], in the test with Staphylococcus aureus [2], in the test with Escherichia coli, in the test on Klebsiella pneumoniae, in the test with Acinetobacter baumannii and in the test with Pseudomonas aeruginosa was inactive. The result with Candida albicans was inactive. Moreover, the IC50 result with HepG2 (hepg2), with A549 and in the test with MIA PaCa-2 was “Not Active” in each case.
Turning to `C[N+]1(C)CCC[C@@H]1C(=O)N[C@@H](Cc1cc(Br)c(O)c(I)c1)C(=O)O`, the result in the test on Staphylococcus aureus [1], in the test on Staphylococcus aureus [2], in the test on Escherichia coli, in the test on Klebsiella pneumoniae, in the test with Acinetobacter baumannii and in the test with Pseudomonas aeruginosa was inactive. Besides, the outcome in the test on Candida albicans was inactive.
As for `C[N+](C)(C)CCc1cc(I)c(O)c(I)c1.O=C([O-])C(F)(F)F`, the result in the test on Staphylococcus aureus [1], with Staphylococcus aureus [2], in the test with Escherichia coli, with Klebsiella pneumoniae, in the test with Acinetobacter baumannii and in the test on Pseudomonas aeruginosa was inactive. Moreover, the outcome in the test with Candida albicans was inactive. For the same compound, the IC50 result in the test with HepG2 (hepg2), with A549 and in the test with MIA PaCa-2 was “Not Active” in each case.
Consider `CC(C)=CC(=O)Nc1nc2c([nH]1)[C@H](C)c1[nH]c(NC(=O)C(C)C)nc1CC2`, for which the result in the test with Staphylococcus aureus [1], in the test on Staphylococcus aureus [2], in the test on Escherichia coli, in the test with Klebsiella pneumoniae, in the test on Acinetobacter baumannii and with Pseudomonas aeruginosa was inactive. The outcome with Candida albicans was inactive. The IC50 result in the test on HepG2 (hepg2), in the test with A549 and in the test on MIA PaCa-2 was “Not Active” in each case.
Consider `CCC(C)C(=O)Nc1nc2c([nH]1)[C@@H](C)c1[nH]c(NC(=O)C=C(C)C)nc1CC2` (some centres not stated), for which the outcome with Staphylococcus aureus [1], in the test on Staphylococcus aureus [2], with Escherichia coli, in the test on Klebsiella pneumoniae, with Acinetobacter baumannii and in the test on Pseudomonas aeruginosa was inactive. Also, the outcome with Candida albicans was inactive. The IC50 entry in the test with HepG2 (hepg2), in the test with A549 and with MIA PaCa-2 was “Not Active” in each case.
For `C[N+](C)(C)CC(=O)N[C@@H](Cc1cc(Br)c(O)c(I)c1)C(=O)O.O=C([O-])C(F)(F)F`, the outcome in the test with Staphylococcus aureus [1], with Staphylococcus aureus [2], in the test with Escherichia coli, in the test with Klebsiella pneumoniae, with Acinetobacter baumannii and in the test on Pseudomonas aeruginosa was inactive. Further, the result with Candida albicans was inactive. The IC50 was 7.8 µM in the test on HepG2 (Homo sapiens, HepG2, 24 h, read-out: IC50); “Not Active” with A549; “Not Active” with MIA PaCa-2.
